Experimental data as given in article PMC10527924 (Toxicology in vitro : an international journal published in …, 2023).
Read-outs that look alike come from different tables or passages of the source.

Legend:
[1] = test system: EpiDerm-200-X reconstructed human epidermis (RhE)
excised human skin (EHS) = conditions: female, 0.61 nmol/μL
[2] = not measured for this paper; no reference given; cited from earlier work
[3] = test system: EpiDerm-200-X reconstructed human epidermis (RhE); assay: In vitro permeation testing; conditions: 5 mm orifice Franz cell, finite dose 6 nmol/cm^2
[4] = 0.61 nmol/μL

SMILES	vehicle effect on 6 h cumulative permeation [1]	6 h Cumulative Permeation ([1]; human, 0.61 nmol/μL)	6 h Cumulative Permeation (excised human skin (EHS))	Log Kow (n-octanol-water partition coefficient) [2]	time of mean peak flux [3]	time of mean peak flux ([1]; human, 0.61 nmol/μL)	time of peak flux [4]	6 h Cumulative Permeation ([4]; 6 h)
O=C(O)c1ccccc1O [salicylic acid]	did not alter its permeation	0.32 ± 0.05 nmol/cm^2	0.18 ± 0.10 nmol/cm^2	2.26				
C[C@]12CC[C@H]3[C@@H](CCC4=CC(=O)CC[C@@]43C)[C@@H]1CC[C@@H]2O [testosterone]					2 h			
Cn1c(=O)c2c(ncn2C)n(C)c1=O [caffeine]	statistically significant decrease	3.32 ± 0.33 nmol/cm^2	0.97 ± 0.22 nmol/cm^2	−0.07		3 h	2 h	0.43 ± 0.03 nmol/cm^2
